Experimental data published in US11608319B2, “Beta-amino acid derivative, kinase inhibitor and pharmaceutical composition containing the same, and method for performing an in vivo related application that benefits from the inhibition of a kinase” (Industrial Technology Research Institute, priority 2019, dated 2023).
Where “and” joins values, the source holds several entries; their conditions need not be identical. Identical values can stand only once. Counter-ions that a name gives are not always drawn. Like-named read-outs stand apart in the source and are kept apart here.

Key:
[1] = tested on: Human Trabecular Meshwork (HTM) cells; assay: Expression of MYLK-4 in HTM cells by Western blotting; assay type: cell-based; conditions: HTM cells treated overnight with 50 μg/mL dexamethasone
Method: Expression of MYLK-4 in Cells
Human Trabecular Meshwork (HTM) cells (Cat. NO. 6590) were obtained from ScienCell Research Laboratories. HTM cells were maintained in Trabecular Meshwork Cell Medium (TMCM) (Cat. NO. 6591). TMCM formulated from 500 mL basal medium, 10 mL FBS (Cat. NO. 0010), 5 mL trabecular meshwork cell growth supplement (TMCGS, Cat. NO. 6592) and 5 mL penicillin/streptomycin solution (P/S, Cat. NO. 503). When the cell growth reached 70-80% saturation, the HTM cells were treated overnight with 50 μg/mL dexamethasone (Cat. NO. 4902, Sigma).
The expression of MYLK4 and GAPDH in cell lysates was analyzed by Western blotting method. First, the cells were collected and washed with 1×RIPA (50 mM Tris-HCl, pH 7.4, 150 mM NaCl, 0.25% deoxycholic acid, 0.1% NP-40, 1 mM EDTA, phosphatase inhibitor and protease inhibitor mixture). Next, the cell lysates were separated by SDS-PAGE (sodium dodecyl sulfate polyacrylamide gel electrophoresis) and transferred to PVDF membrane (iBlot™ 2 Transfer Stacks, polyvinylidene fluoride membrane, Invitrogen). Immunoblotting was performed on the membrane with primary antibodies (mouse anti-MYLK4 antibody (1:1,000, Cat. NO. SAB1412951) and mouse anti-GAPDH antibody (1:1,000, Cat. NO. G8795)), wherein GAPDH was used as a loading control. […]

humans = conditions: phase III clinical trial; cited from earlier work
ROCK1 = ROCK1 (Homo sapiens (Human), UniProt Q13464); assay: biochemical
MYLK4 = MYLK4 (Homo sapiens (Human), UniProt Q86YV6); assay: Assay for inhibitory effect on MYLK-4, LanthaScreen Eu Kinase Binding Assay
YSK4 = YSK4 (Homo sapiens (Human), UniProt Q56UN5); assay: Assay for inhibitory effect on YSK-4, Z'-LYTE kinase assay; assay type: biochemical
Method: C. Assay for Inhibitory Effect on YSK-4
The experimental procedure referred to the Z′-LYTE Screening Protocol and Assay Conditions provided by ThermoFisher Scientific.
C-1. Material Preparation
Peptide/Kinase Mixture was pre-diluted with Kinase Buffer to 2× working concentration.
ATP solution was pre-diluted with Kinase Buffer (50 mM HEPES pH 7.5, 0.01% BRIJ-35, 10 mM MgCl2, 1 mM EGTA) to 4× working concentration.
The development reagent solution is Novel PKC Lipid Mix, which contains 2 mg/mL Phosphatidyl Serine, 0.2 mg/mL DAG in 20 mM HEPES, pH 7.4 and 0.3% CHAPS, and was pre-diluted 10 fold with development buffer.
1. 100 nL of the above diluted test compound and 2.4 μL of kinase buffer were added to a black 384-well plate (Corning, Cat. NO. 4514), then add 5 μL of the peptide/kinase mixture mentioned above was added thereto, and after that 2.5 μL of ATP solution was added thereto, and the culture plate was shaken for 30 seconds.
2. Next, the culture plate was placed at room temperature and incubated for 60 minutes.
3. After that 5 μL of the development reagent solution was added and the culture plate was shaken for 30 seconds in the dark, and then the data was read and analyzed with a fluorescence plate reader.
In addition, for the kinase, the following control group was prepared and placed on the same culture plate as the kinase:
(1) 0% Phosphorylation Control (100% Inhibition Control)
This control yields 100% cleaved peptide in the Development Reaction.
(2) 100% Phosphorylation Control
A synthetically phosphorylated peptide of the same sequence as the peptide substrate is used as the 100% Phosphorylation Control.
The Phosphorylation percent achieved in a specific reaction well (Experimental group) was calculated based on the 0% Phosphorylation Control and 100% Phosphorylation Control.

[2] = tested on: rabbit eyes with normal intraocular pressure; assay: Evaluation of the effect of decreasing intraocular pressure in a model of rabbit with normal intraocular pressure; assay type: in vivo, New Zealand white rabbit; conditions: for Intraocular pressure difference (mmHg): at time point of maximum effect
Method: Evaluation of the Effect of Decreasing Intraocular Pressure in a Model of Rabbit with Normal Intraocular Pressure
Experimental animal: New Zealand white rabbit, male, weighing more than 2 kg. New Zealand white rabbits were purchased from Huijun Farm (Changhua, Taiwan). After a one-week quarantine period, they were raised in MASTER LABORATORY Co., Ltd under the environmental conditions of 16-22° C., 30-70% relative humidity (RH), 8 hours day/16 hours night.
(1) Evaluation of the Effect of Reducing Intraocular Pressure
After weighing 12 New Zealand white rabbits (2.0-4.0 kg) and grouping them (n=3-6 in each group), the white rabbits were fixed with a wrap.

rabbit eyes [3] = assay: Eye irritation evaluation (OECD/OCDE 405); assay type: in vivo, New Zealand white rabbit
From the text: (2) Irritation Evaluation

cornea of rabbit eyes = assay: Observation of cornea with a slit lamp after 7 days of administration; assay type: in vivo, New Zealand white rabbit; conditions: 0.1% eye drops, continuous administration for 7 days, once a day
[4] = Content analysis for candidate drug in aqueous humor, iris and ciliary body after administration
From the text: (4) Content Analysis for Candidate Drug in Aqueous Humor (AH) after Administration

normal macaques = assay: Intraocular pressure in animal model of macaque with normal intraocular pressure; assay type: in vivo; conditions: eye drop 0.1% or 0.03%
Method: The intraocular pressure of animals was measured by a pneumatic tonometer (Model 30™ Pneumatonometer). Animal anesthesia was required before intraocular pressure measurement. After topical administration (once a day), the intraocular pressure of the animals was measured at the set time points.

[5] = tested on: rabbit eyes with high intraocular pressure induced by hypertonic saline; assay: Model of hypertonic saline induced high intraocular pressure rabbit (acute high intraocular pressure model); assay type: in vivo, New Zealand white rabbit; parameters: AUC: unit not given beside the values; conditions: for AUC: intraocular pressure over 0-5 hours; for Maximum intraocular pressure difference (%) / Maximum intraocular pressure difference (mm Hg): versus physiological saline group
From the text: Evaluation of the effect of reducing intraocular pressure in model of hypertonic saline induced high intraocular pressure rabbit (acute high intraocular pressure model)
Experimental animal: New Zealand white rabbit, male, weighing 2.0-3.0 kg. New Zealand white rabbits were purchased from a qualified laboratory animal rabbit farm in Taiwan before the experiment and were raised in the Animal Center of National Chiao Tung University.
Negative control 1: Physiological saline
Negative control 2: Vehicle without test substance (containing 5% mannitol, 20 mM boric acid and 0.125% nonoxynol-9)
Experimental method: male New Zealand white rabbits were weighed and grouped and then anesthetized. 160 μL of hypertonic saline (5% NaCl) was injected into the vitreous bodies of the left and right eyes of the rabbit under anesthesia, so that the rabbit eyes became a state of high intraocular pressure. […] The intraocular pressure (TOP) detection time points were before anesthesia (0 hours) and 0.5, 1, 1.5, 3, and 5 hours after administration.
Maximum intraocular pressure difference: The difference between an individual's TOP readings and the average TOP readings of the negative control group 1 (physiological saline) at the time point at which the maximum response is recorded (J Ocul Pharmacol Ther. 2010 April; 26(2): 125-132)

[6] = tested on: rabbit eyes with high intraocular pressure induced by magnetic beads; assay: Model of magnetic bead induced high intraocular pressure rabbit (intraocular pressure >30 mmHg); assay type: in vivo, New Zealand white rabbit
From the text: Evaluation of the effect of reducing intraocular pressure in model of magnetic bead induced high intraocular pressure rabbit (high intraocular pressure model with intraocular pressure >30 mmHg)
Experimental animal: New Zealand white rabbit, male, body weight 2.0-3.0 kg. New Zealand white rabbits were purchased from Huijun Farm (Changhua, Taiwan) before the experiment and were raised in the Animal Center of National Chiao Tung University.
Experimental method: After weighing and grouping male New Zealand white rabbits, the New Zealand white rabbits were anesthetized with Zoletil 50 0.2 mL/kg. 50 μL of magnetic bead solution (50 mg/mL, magnetic bead size of 10 μm) was injected into the left and right anterior eye chambers of the rabbit under anesthesia to make rabbit eyes become a state of high intraocular pressure. After the injection to the anterior chamber of the eye, a strong […] iron magnet ring was immediately put around the eye for 10-20 minutes to make the magnetic beads completely block the drainage tissue of the aqueous humor. After disinfecting the eyeball with antibiotics, moisturizing eye ointment was provided to restore the eyeball, and the intraocular pressure rising was waited. […] The experiment was conducted for 2 consecutive days.

[7] = tested on: rabbit eyes with normal intraocular pressure
Method: The maximal effect (Emax) dose evaluation of the intraocular pressure reduction model in normal rabbit
Animals: Male New Zealand white rabbits (n=7/each group);
Administration: 50 μL of the test compound was instilled in the right eye (dosed eye) and 50 μL of the vehicle (without the test compound) in the left eye (control eye) of each experimental animal. The 3 formulation mentioned above were administered once a day for 3 consecutive days.
The intraocular pressure of each animal was measured by Tono-Vet (iCare) before administration (0 hours) and 2, 4, 6 and 8 hours after administration on Day 1 and Day 3.
The maximum magnitude of the reduction in intraocular pressure %=(Intraocular pressure of the control eye−Intraocular pressure of the dosed eye)/Intraocular pressure of the control eye*100
The data presented in this experiment is the data that has removed the unqualified data (white rabbits with an intraocular pressure difference ≥2 mmHg (n=1) in the two eyes on Day 1 and >5 mmHg in the two eyes before the administration on the Day 3 (n=1) have been removed) and removed the rebound high intraocular pressure (n=3).

patients = conditions: cited from earlier work
rabbit eyes [8] = assay: Safety margin assay (eye irritation, OECD/OCDE 405); conditions: Therapeutic index: 2
[9] = eye drops containing 0.1% and 0.03% Compound 20

Sequence of MYLK4 (Q86YV6 whole entry): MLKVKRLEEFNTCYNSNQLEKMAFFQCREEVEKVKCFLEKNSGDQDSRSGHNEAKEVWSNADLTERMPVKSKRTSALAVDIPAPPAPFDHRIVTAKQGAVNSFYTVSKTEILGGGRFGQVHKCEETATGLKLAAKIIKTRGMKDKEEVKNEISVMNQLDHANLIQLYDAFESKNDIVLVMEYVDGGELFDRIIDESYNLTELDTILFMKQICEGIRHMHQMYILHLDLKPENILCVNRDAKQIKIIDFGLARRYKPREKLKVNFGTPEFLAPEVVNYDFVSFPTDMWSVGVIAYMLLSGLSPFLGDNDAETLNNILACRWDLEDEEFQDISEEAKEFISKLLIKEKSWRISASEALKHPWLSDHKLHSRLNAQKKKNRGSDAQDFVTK
Sequence of ROCK1 (Q13464 whole entry, species assumed): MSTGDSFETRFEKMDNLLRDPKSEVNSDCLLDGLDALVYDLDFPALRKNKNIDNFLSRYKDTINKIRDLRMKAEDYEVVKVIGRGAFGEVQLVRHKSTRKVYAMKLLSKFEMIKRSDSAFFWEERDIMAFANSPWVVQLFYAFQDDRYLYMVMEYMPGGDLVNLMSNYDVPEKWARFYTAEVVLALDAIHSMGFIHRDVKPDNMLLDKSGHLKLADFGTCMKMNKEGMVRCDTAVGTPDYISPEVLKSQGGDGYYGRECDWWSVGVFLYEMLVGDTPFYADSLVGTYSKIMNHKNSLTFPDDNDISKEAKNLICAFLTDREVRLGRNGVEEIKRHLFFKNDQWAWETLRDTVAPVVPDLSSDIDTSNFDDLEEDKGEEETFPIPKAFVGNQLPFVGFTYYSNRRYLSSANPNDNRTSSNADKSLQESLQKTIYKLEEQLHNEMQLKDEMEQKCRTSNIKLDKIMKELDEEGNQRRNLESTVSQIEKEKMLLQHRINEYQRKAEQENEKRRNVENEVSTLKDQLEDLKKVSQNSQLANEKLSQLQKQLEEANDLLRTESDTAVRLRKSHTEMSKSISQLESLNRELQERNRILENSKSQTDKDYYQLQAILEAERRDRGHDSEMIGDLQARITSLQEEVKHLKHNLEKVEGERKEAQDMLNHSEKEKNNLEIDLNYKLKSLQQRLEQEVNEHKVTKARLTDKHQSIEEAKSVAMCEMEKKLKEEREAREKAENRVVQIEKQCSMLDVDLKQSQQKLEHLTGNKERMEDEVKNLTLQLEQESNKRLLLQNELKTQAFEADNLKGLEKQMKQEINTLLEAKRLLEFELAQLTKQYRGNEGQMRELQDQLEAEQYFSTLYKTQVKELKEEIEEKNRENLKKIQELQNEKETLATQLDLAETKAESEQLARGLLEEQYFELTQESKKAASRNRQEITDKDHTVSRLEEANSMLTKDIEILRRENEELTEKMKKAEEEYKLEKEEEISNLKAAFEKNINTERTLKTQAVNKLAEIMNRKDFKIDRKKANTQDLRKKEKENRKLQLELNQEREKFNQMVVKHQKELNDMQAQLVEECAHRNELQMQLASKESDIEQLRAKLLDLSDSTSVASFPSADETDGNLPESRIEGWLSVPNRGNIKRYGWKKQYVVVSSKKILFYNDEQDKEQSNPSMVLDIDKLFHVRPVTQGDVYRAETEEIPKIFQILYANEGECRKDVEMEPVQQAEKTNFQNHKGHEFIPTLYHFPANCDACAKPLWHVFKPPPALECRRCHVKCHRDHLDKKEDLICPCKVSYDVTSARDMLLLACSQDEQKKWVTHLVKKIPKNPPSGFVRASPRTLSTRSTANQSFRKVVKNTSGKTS
Sequence of YSK4 (Q56UN5 whole entry): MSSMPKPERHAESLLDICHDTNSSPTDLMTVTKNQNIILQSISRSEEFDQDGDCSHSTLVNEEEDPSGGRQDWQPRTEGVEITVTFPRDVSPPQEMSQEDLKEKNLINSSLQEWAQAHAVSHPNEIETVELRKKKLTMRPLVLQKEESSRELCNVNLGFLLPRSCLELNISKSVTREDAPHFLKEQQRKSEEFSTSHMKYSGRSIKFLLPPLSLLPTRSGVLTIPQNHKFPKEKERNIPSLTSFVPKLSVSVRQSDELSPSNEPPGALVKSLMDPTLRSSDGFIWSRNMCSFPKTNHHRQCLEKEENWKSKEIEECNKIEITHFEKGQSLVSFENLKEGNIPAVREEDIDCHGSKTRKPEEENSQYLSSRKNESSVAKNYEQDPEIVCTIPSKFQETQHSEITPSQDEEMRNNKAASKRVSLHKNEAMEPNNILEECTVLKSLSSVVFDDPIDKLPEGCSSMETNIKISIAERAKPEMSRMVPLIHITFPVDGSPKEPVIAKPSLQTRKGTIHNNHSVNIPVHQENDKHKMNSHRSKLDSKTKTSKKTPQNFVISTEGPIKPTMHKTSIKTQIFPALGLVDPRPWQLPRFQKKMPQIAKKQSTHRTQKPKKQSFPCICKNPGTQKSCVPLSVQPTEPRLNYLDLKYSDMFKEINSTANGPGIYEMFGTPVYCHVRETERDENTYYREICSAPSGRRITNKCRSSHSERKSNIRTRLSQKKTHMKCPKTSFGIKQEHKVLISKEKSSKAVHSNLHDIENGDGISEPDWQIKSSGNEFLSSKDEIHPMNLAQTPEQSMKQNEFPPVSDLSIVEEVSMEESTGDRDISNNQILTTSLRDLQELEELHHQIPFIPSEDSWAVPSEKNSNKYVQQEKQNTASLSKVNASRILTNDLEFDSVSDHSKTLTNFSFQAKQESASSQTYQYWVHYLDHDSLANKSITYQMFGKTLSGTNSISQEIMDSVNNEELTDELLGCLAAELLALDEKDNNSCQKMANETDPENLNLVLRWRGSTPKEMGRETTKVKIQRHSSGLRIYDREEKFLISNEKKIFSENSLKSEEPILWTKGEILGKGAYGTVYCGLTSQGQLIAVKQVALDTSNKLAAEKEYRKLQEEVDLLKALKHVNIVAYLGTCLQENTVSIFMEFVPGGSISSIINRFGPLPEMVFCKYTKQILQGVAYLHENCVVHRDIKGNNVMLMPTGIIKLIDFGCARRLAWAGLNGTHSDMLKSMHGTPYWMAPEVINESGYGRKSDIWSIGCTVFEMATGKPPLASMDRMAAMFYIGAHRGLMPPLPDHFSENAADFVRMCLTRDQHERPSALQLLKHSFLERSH

C[C@@H]1C[C@H]2[C@@H]3CCC4=CC(=O)C=C[C@]4(C)[C@@]3(F)[C@@H](O)C[C@]2(C)[C@@]1(O)C(=O)CO [dexamethasone]
expression level of MYLK-4 [1]: higher than that of normal HTM cells

C[C@H]1CNCCCN1S(=O)(=O)c1cccc2cncc(F)c12 [Ripasudil]
incidence of mild conjunctival hyperemia (humans): up to 75%

NC[C@@H](C(=O)Nc1ccc(-c2cn[nH]c2)cc1)c1ccccc1 [Compound 20, (S)—N-(4-(1H-pyrazol-4-yl)phenyl)-3-amino-2-phenylpropanamide dihydrochloride]
IC50 (ROCK1): 1 to 10 nM | IC50 (MYLK4): 10 to 100 nM | inhibitory effect on YSK4 (in words) (YSK4): simultaneously targets ROCK, MYLK-4 and YSK-4 | time point at which maximum effect is achieved ([2]; dose 0.03%): 8 h | Intraocular pressure difference (mmHg) ([2]; dose 0.03%): 4.9 mmHg | maximum magnitude of the reduction in intraocular pressure [2, 9]: 4.4-4.9 mmHg | time of maximum effect (Emax) after administration [2, 9]: 6 to 8 h | eye irritation compared with AR-13324 (0.02%) (rabbit eyes [3]; Compound 20 at 0.1%): lower than AR-13324 | eye irritation (rabbit eyes [3]; [9]): slight | state of the cornea (cornea of rabbit eyes): free of damage and turbidity | content in the aqueous humor after administration ([4]; normal rabbits): can reach the requirement of ROCK inhibition | drug concentration at the target tissue (iris and ciliary body, aqueous humor) ([4]; rabbit eyes with normal intraocular pressure): reaches the target effect IC90 or more within 8 hours | side effects, such as pink eye (normal macaques): without obvious side effects | effect of reducing intraocular pressure compared with 0.02% AR-13324 (normal macaques; once a day): equivalent to or better than that of AR-13324 | effect in reducing intraocular pressure compared with AR-13324 (t-test) ([5]; 0.1% Compound 20 versus 0.02% AR-13324, p<0.05): significantly better than that of AR-13324 | AUC ([5]; dose 0.1%): 99.1 | Maximum intraocular pressure difference (%) ([5]; dose 0.1%): −40.4% | Maximum intraocular pressure difference (mm Hg) ([5]; dose 0.1%): −18.0 ± 6.8 mm Hg | reduction of the intraocular pressure ([5]; eye drop containing 0.1%): about 18.0±6.8 mmHg | reduction of intraocular pressure in percent ([6]; eye drop containing 0.03%): about 15.3% | reduction of intraocular pressure in percent ([6]; eye drop containing 0.1%): about 28.8% | dose dependence of the reduction of intraocular pressure ([7]; 0.01%, 0.03%, 0.1%): exhibits a dose dependent effect | increase of the reduction in intraocular pressure on Day 3 compared to Day 1 ([7]; 0.03% Compound 20, on average): ~1 mmHg | The magnitude of intraocular pressure reduction (ΔIOP) (mmHg) ([7]; Day 1, 0.01% Compound 20, 50 μL eye drop): −2.9 ± 1.1 mmHg | The maximum magnitude of the reduction in intraocular pressure ([7]; Day 1, 0.01% Compound 20, versus control eye): 18.7% | The magnitude of intraocular pressure reduction (ΔIOP) (mmHg) ([7]; Day 1, 0.03% Compound 20, 50 μL eye drop): −4.3 ± 1.2 mmHg | The maximum magnitude of the reduction in intraocular pressure ([7]; Day 1, 0.03% Compound 20, versus control eye): 28.3% | The magnitude of intraocular pressure reduction (ΔIOP) (mmHg) ([7]; Day 1, 0.10% Compound 20, 50 μL eye drop): −5.3 ± 0.6 mmHg | The maximum magnitude of the reduction in intraocular pressure ([7]; Day 1, 0.10% Compound 20, versus control eye): 32.2% | The magnitude of intraocular pressure desc (ΔIOP) (mmHg) ([7]; Day 3, 0.01% Compound 20, once a day): −2.7 ± 0.8 mmHg | The maximum magnitude of the reduction in intraocular pressure ([7]; Day 3, 0.01% Compound 20, versus control eye): 15.4% | The magnitude of intraocular pressure desc (ΔIOP) (mmHg) ([7]; Day 3, 0.03% Compound 20, once a day): −5.1 ± 1.2 mmHg | The maximum magnitude of the reduction in intraocular pressure ([7]; Day 3, 0.03% Compound 20, versus control eye): 30.5% | The magnitude of intraocular pressure desc (ΔIOP) (mmHg) ([7]; Day 3, 0.10% Compound 20, once a day): −5.2 ± 1.3 mmHg | The maximum magnitude of the reduction in intraocular pressure ([7]; Day 3, 0.10% Compound 20, versus control eye): 32.6% | maximum effect (Emax) dose in the normal intraocular pressure rabbit model ([7]; eye drop concentration): 0.03% | Tmax ([7]; rabbit, in vivo, dihydrochloride): 6 h and 8 h

Cc1ccc(C(=O)OCc2ccc([C@@H](CN)C(=O)Nc3ccc4cnccc4c3)cc2)c(C)c1 [AR-13324, Netarsudil, reference compound]
IC50 (MYLK4): > 1000 nM | time point at which maximum effect is achieved ([2]; dose 1%): 6 h | Intraocular pressure difference (mmHg) ([2]; dose 1%): 4.5 mmHg | AUC ([5]; dose 0.02%): 132.9 | Maximum intraocular pressure difference (%) ([5]; dose 0.02%): −20.8% | Maximum intraocular pressure difference (mm Hg) ([5]; dose 0.02%): −7.7 ± 4.2 mm Hg | difference compared with the physiological saline or the vehicle (t-test) ([5]; eye drop containing 0.02%): no statistically significant difference | reduction of the intraocular pressure ([5]; eye drop containing 0.02%): about 7.7±4.2 mmHg | Maximum intraocular pressure difference (mmHg) ([6]; dose 0.02%, experiment of Table 13): 3.6 ± 2.1 mmHg | reduction of intraocular pressure in percent ([6]; eye drop containing 0.02%): about 11.0% | efficacy compared with Timolol (patients; patients <25 mmHg): comparable to Timolol | efficacy compared with Timolol (patients; patients with intraocular pressure >25 mmHg): not as effective as the conventional glaucoma treatment drug Timolol | OECD Score: Chemosis (rabbit eyes [8]): 1 | OECD Score: Discharge (rabbit eyes [8]): 2 | OECD Score: Redness (rabbit eyes [8]): 1 | OECD Score: Total (rabbit eyes [8]): 4
